Paper PMC13081163, “Discovery of a novel Nrf2 activator that modulates mitochondrial function in neurons by regulating DHRS3-Nrf2 interaction after ischemic stroke” (Theranostics, 2026)
Like-named read-outs stand apart in the source and are kept apart here.

Key:
SH-SY5Y cells [1] = assay: Protection against OGD/R damage in SH-SY5Y cells (CCK-8); assay type: cell-based, human; settings: for EC50: Homo sapiens
Method: (§1) To mimic ischemic conditions in vitro, cells were washed with PBS and then cultured for 2.5 h at 37 °C in glucose-free medium under anaerobic conditions (5% hydrogen, 90% nitrogen, and 5% carbon dioxide). OGD process was terminated by transferring cells back to normal glucose-containing medium under normoxic conditions (5% CO₂, 37 °C) and maintained for 24 h.
(§2) In the administration group, cells were exposed for 12 h with Cpd.51 prior to OGD. OGD lasted for 2.5 h and the reperfusion lasted for 24 h before the experiment was concluded. Subsequently, cell viability was determined using the cell counting kit-8 (CCK-8, C0039, Beyotime, China). In the experiment to explore the treatment time window, the only difference was the timing of the Cpd.51 treatment, while all other procedures remained unchanged.
Hek-293T cells were transiently transfected, using Lipofectamine™ 3000 and P3000™ reagent (L3000075, Invitrogen, USA) according to the manufacturer's instructions, with the wild-type, point-mutant and double-mutations constructs of Keap1, DHRS3 or Nrf2 (each at 0.5 ng/μL), respectively. Similarly, to promote the expression of the DHRS3 gene, a DHRS3 expression plasmids (0.5 ng/μL) was transfected as well as the corresponding negative controls into SH-SY5Y cells for 6 h, and further cultured with fresh medium for 18 h according to the manufacturer's instructions.

SH-SY5Y cells [2] = assay: Cytotoxicity in SH-SY5Y cells, 24 h incubation; assay type: cell-based; settings: Homo sapiens
[3] = test system: rat transient Middle Cerebral Artery Occlusion (tMCAO) model; assay: Rat tMCAO model, acute phase (TTC, mNSS, peri-infarct cortex); assay type: in vivo
Method: Cpd.51 was dissolved in solvent (10% DMSO, 10% Solutol HS-15 and 80% saline). It was injected (i.v.) at dose of 3 mg/kg or 5 mg/kg in a 0.5 mL volume. The Sham group and Vehicle group were treated simultaneously with an equal volume of solvent. In the experiment to explore the treatment time window, we merely administered the drug to the rats at different time points, while all other procedures remained unchanged. In the short-term toxicity study, 10 mg/kg Cpd.51 and Oma were administered via tail vein injection at 0.5 mL daily for 7 consecutive days.
All rats were fasted for more than 12 h before the operation began. Transient focal cerebral ischemia was induced by middle cerebral artery occlusion (MCAO) in rat, as previously described, [29]. In short, after anesthetizing the rats with 2.5% tribromoethanol, the right common carotid artery (CCA), external carotid artery (ECA), and internal carotid artery (ICA) were isolated. […] The body temperature of the animals was maintained between 36.5 °C and 37.5 °C.
After the behavioral assessments, rats were euthanized and the brain harvested. Brain tissue was cut into five coronal sections (2 mm thick) and incubated in 2% TTC (298-96-4, TCI, Japan) for 20 min at 37 °C. The volume of ischemic brain injury was measured using ImageJ (US National Institutes of […], Bethesda, MD, USA).
To assess the degree of neurological impairment, we conducted modified Neurological Severity Score (mNSS) according to previous experience. The investigator was blinded to the grouping situation during the whole experiment.
The anesthetized-animals were transcardially perfused with 0.9% saline in vivo. The ischemic penumbral tissue was isolated from rats and grinded in PBS. Similarly, in vitro, the cells were digested with pancreatic enzymes and placed in PBS. Next, repeatedly freeze and thaw three times in liquid nitrogen and 37 °C water. Sample supernatant was taken for testing according to the MDA or GSH assay kit instructions (S0131M or S0053, Beyotime, China).
Brain tissue was fixed with 4% paraformaldehyde and immersed in 15% sucrose and 30% sucrose at 4 °C overnight. Coronal brain sections (thickness = 20 μm) were incubated with blocking solution for 1.5 h at room temperature followed by incubation with primary antibodies: anti-Nrf2 (1:200, CST), anti-DHRS3 (1:300, Proteintech), anti-NeuN (1:500, Servicebio), anti-GFAP (1:500, Abcam) and anti-Iba-1 (1:500, Abcam). Subsequent immunostaining assays were performed as previously described of cells.

primary cortical neurons = assay: OGD/R damage in primary cortical neurons (CCK-8); assay type: cell-based, rat
Method: as §1, §2
Rat primary neuronal cells collected from the cerebral cortices of embryos (embryonic day 18) from pregnant SD rats were isolated and cultured. In brief, the cerebral cortex tissue of […] was removed and cut into small pieces using ophthalmic curved shears. The tissue was repeatedly pipetted after the addition of preheated 0.25% Trypsin digestive solution (BR00083, ABclonal, China). Finally, twice the volume of the culture medium was added and terminated the digestion to complete the extraction of primary cortical cells. […]

DHRS3 = assay: Western blotting of DHRS3 in SH-SY5Y cells after OGD/R; assay type: cell-based, human
Method: The western blotting analysis was conducted as we previously described. First, the total protein was extracted using RIRA buffer and then the protein concentrations were determined using the BCA kit (P0012, Beyotime, China). The extraction of mitochondrial proteins was carried out according to the instructions (C3601, Beyotime, China). The samples were separated electrophoretically and then wet-transferred onto 0.2 μm PVDF membranes (88520, Thermo Scientific, USA). After blocking with 5% non-fat dry milk in Tris-buffered saline (TBS) (pH 7.4) containing 0.1% Tween 20 at room temperature for 2 h, the protein membranes were sequentially immersed with the primary antibody at 4 °C overnight and secondary antibody at room temperature for 1 h. Finally, the membranes were quantified using image analysis system.

[4] = Microsomal metabolic stability, human; assay type: in vitro ADME; settings: human liver microsomes
Method: The liver microsomal incubation system comprised human, dog, or rat liver microsomal protein (0.75 mg/mL), nicotinamide adenine dinucleotide phosphate (NADPH) generation system, potassium phosphate buffer (0.1 M, pH 7.4), substrate, and inhibitor. The assay was conducted by first preparing a potassium phosphate buffer. Compounds and liver microsomes were then diluted and pre-incubated at 37 °C before initiating the reaction with NADPH. Aliquots were quenched with acetonitrile containing internal standard at specified time points. After sample processing (shaking and centrifugation), the supernatants were analyzed by LC-MS/MS to determine metabolic stability.

[5] = 5 mg/kg i.v. at 4 h post-ischemia, read at 24 h

## CC1(C)CCC2(C(=O)NO)CCC3(C)C(C(=O)C=C4C5(C)C=C(C#N)C(=O)C(C)(C)C5CCC43C)C2C1 (centres unmarked) [Cpd.51]
SH-SY5Y cells [1]; 100 nM, CCK-8
  OGD/R damage when administered at different time points: consistently alleviated OGD/R damage
SH-SY5Y cells [1]; SH-SY5Y, DHRS3-OE (DHRS3 overexpression plasmid), read-out: EC50 of cytoprotection against OGD/R
  EC50: 0.183 µM
SH-SY5Y cells [1]; SH-SY5Y, NC-OE, read-out: EC50 of cytoprotection against OGD/R
  EC50: 0.053 µM
SH-SY5Y cells [1]; read-out: EC50 against OGD/R damage
  EC50: 0.0197 µM
SH-SY5Y cells [2]
  IC50: 1.98 µM
[3]; 3 mg/kg and 5 mg/kg i.v. at the same time as ischemia
  area of infarction (TTC): significantly reduced the area of infarction
[3]; [5]
  infarction volume, delayed administration: significantly diminished infarction volume
  mNSS scores, delayed administration: improved mNSS scores
[3]; 24 h post tMCAO, immunoblotting
  Nrf2, HO-1 and NQO1 protein levels in peri-infarct cortex: significantly upregulated
[3]; peri-infarct region, 24 h after ischemia
  cell type of Nrf2 enrichment (co-staining NeuN, GFAP, Iba-1): Nrf2 was selectively enriched in neurons
[3]; tMCAO rats, i.v.
  mNSS scores: significantly inhibited the increase in mNSS scores
[3]; tMCAO rats, peri-infarct cortex
  GSH and MDA in cortical tissues: restoring GSH concentrations and suppressing MDA accumulation
Primary cortical neurons
  efficacy in OGD/R-induced primary neuronal damage: excellent efficacy
DHRS3
  DHRS3 protein expression induced by OGD/R: substantially attenuated this induction
[4]
  Remainig (%, t = 60 min): 28.9%
[4]; human, pH 7.4
  CLint scaled: 34 mL/min/kg
  half-life: 36.7 min
